Data taken from article PMC5161641 (Nature, 2016).
Where a chain is given by its changes, count along the chain named.

Columns and labels:
[1] = molecular target: T1, human P2X3 receptor (hP2X3-MFC) (Homo sapiens, UniProt P56373); assay: SPA 3H-ATP saturation binding
T1 sequence (P56373 6-364): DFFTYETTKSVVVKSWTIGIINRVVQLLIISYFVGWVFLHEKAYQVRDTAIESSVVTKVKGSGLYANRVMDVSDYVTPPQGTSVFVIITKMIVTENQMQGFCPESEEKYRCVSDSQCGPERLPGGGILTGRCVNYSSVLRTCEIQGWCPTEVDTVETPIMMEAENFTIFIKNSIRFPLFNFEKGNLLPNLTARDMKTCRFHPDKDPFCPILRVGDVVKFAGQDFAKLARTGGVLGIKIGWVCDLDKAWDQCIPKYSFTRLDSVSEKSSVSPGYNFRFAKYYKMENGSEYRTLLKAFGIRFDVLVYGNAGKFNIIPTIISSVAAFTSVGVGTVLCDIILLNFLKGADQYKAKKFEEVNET

[2] = molecular target: T2, human P2X3 receptor (hP2X3-MFCslow) (Homo sapiens, UniProt P56373, T13P/S15V/V16I); assay: SPA 3H-ATP saturation binding
T2 sequence (P56373 6-364 T13P/S15V/V16I): T1 sequence (P56373 6-364) with T8P, S10V, V11I

[3] = molecular target: T1, human P2X3 receptor (hP2X3-MFC); assay: X-ray structure of soaked crystal; type: binding

Ki [3] [nM] | SMILES | Kd [1] [nM] | Kd [2] [nM]
 | Nc1ncnc2c1ncn2[C@@H]1O[C@H](COP(=O)(O)OP(=O)(O)OP(=O)(O)O)[C@@H](O)[C@H]1O [ATP] | 2.8 ± 0.1 | 3.3 ± 0.3
1.9 ± 0.1 | CSc1nc(N)c2ncn([C@@H]3O[C@H](COP(=O)(O)OP(=O)(O)OP(=O)(O)O)[C@@H](O)[C@H]3O)c2n1 [2-methylthio-ATP, 2-(methylthio)adenosine 5′-triphosphate] |  | 
